Test results: patent publication US20220202897A1, “USE OF CYCLO(HIS-PRO) (CHP) FOR PREVENTING, AMELIORATING, OR TREATING FIBROSIS” (NOVMETAPHARMA CO., LTD., priority 2019, published 2022)

How the values were obtained:
Huh7 liver cell line = assay: Fibronectin protein expression (Western blot) in a human-derived hepatocyte fibrosis model; assay type: cell-based; settings: Huh7 cells; TGFβ 2 ng/ml with CHP 250 ng/ml; 48 hours; corrected by GAPDH; FIG. 5
Method: (§1) DMEM medium and FBS were purchased from Hyclone for culturing the Huh7 liver cell line, and TGFβ for inducing fibrosis was purchased from R&D Systems. The cells were cultured in a DMEM medium supplemented with 10% FBS in a 5% CO2 incubator at 37° C., treated with TGFβ at a concentration of 2 ng/ml and treated with CHP at 0, 62.5, 125, or 250 ng/ml, and cells were harvested at 48 hours of treatment.
RIPA lysis buffer and Halt™ protease and phosphatase inhibitor cocktails was purchased from Thermo to analyze the expression of fibronectin protein, a fibrotic protein, and for protein quantification, BCA protein quantification kit was purchased from Thermo. […] The supernatant was collected, and the protein concentration was measured by BCA quantitation, and the protein was separated from the same amount of samples using the Bolt™ protein gel electrophoresis system, and transferred to a nitrocellulose membrane. […] After washing 3 times for 10 minutes with TBST, the expression level was measured by reacting with ECL. The size of the appearing band was quantified using the ImageJ program and corrected by dividing the fibronectin band size value by the GAPDH band size value. Statistical significance was analyzed using Student's t-test statistical method with the control group. #p<0.05 (negative control group: TGFβ treated control group).

[1] = tested on: human-derived proximal tubular epithelial cells; assay: Cytological morphology after CHP treatment in a human-derived proximal tubular epithelial cell fibrosis model (TGFβ-induced); assay type: cell-based; settings: recombinant TGFβ 2 ng/ml; CHP 4, 20 and 100 μg/ml; FIG. 2
[2] = tested on: animal model of fat fibrosis; assay: Fibrosis marker gene expression (real-time PCR) in epididymal adipose tissue of a high-fat-diet animal model of fat fibrosis; assay type: in vivo, C57BL/6 mice; settings: high-fat diet mice; CHP 5 and 35 mg/kg orally once a day for 16 weeks; corrected by GAPDH; FIG. 11
Method: (§2) For liver fibrosis experiments in animals, 12-week-old C57BL/6 mice fed a high-fat diet containing 60% fat for 6 weeks were purchased from Jackson, USA, and Research diets D12492, a 60% fat-containing high-fat dietary feed purchased from Saeron Bio, were ingested for 17 weeks. Mice were bred to allow free access to feed and water in an environment of 24±3° C. C57BL/6 mice fed a high-fat diet for 6 weeks were acclimatized to the breeding environment for 1 week, and their weights were measured and evenly divided into 3 groups as shown in Table 1. CHP was orally administered to each group at a concentration of 5 mg/kg or 35 mg/kg once a day for 16 weeks, and the same amount of distilled water was orally administered to the control group in the same manner.
For fat fibrosis experiments in animals, an animal model of fat fibrosis was established in the same manner as in Example 4-1.
(§3) Isoflurane required for anesthesia and dissection of mice was purchased from Hana Pharmaceutical, and Vetequip's RC2 Rodent Circuit Controller Anesthesia System was prepared. Phosphate buffered saline (PBS) was purchased from Hyclone. To isolate the mouse adipose tissue, the mice were anesthetized by respiratory anesthesia with 3-3.5% isoflurane. After blood was drawn from the heart of the anesthetized mice, the epididymal adipose tissue (EAT) was immediately excised, 100 mg of the fat was cut out, and RNA extraction and gene expression analysis were performed in the same manner as in Example 6-2. The expression value of each gene was corrected by dividing by the expression value of GAPDH, a housekeeping gene.
Statistical significance was analyzed using one-way ANOVA statistical analysis, and the Dunnett post hoc test was used to compare the significance with the control group (*p<0.05, **p<0.01).

[3] = tested on: animal model of liver fibrosis; assay: Fibronectin protein expression (Western blot) in liver tissue of a high-fat-diet animal model of liver fibrosis; assay type: in vivo, C57BL/6 mice; settings: 60% fat high-fat diet mice; CHP 5 or 35 mg/kg orally once a day for 16 weeks; vs HFD control; effect stronger according to the concentration; FIG. 6
Method: as §2
Isoflurane required for anesthesia and dissection of mice was purchased from Hana Pharmaceutical, and Vetequip's RC2 Rodent Circuit Controller Anesthesia System was prepared. Phosphate buffered saline (PBS) was purchased from Hyclone. To isolate the mouse liver tissue, the mice were anesthetized by respiratory anesthesia with 3-3.5% isoflurane. After blood was drawn from the heart of anesthetized mice, the liver tissue was immediately excised and washed with PBS. […] Statistical significance was analyzed using the Student's t-test statistical method with HFD control group (*p<0.05, **p<0.01).

[4] = tested on: animal model of pulmonary fibrosis; assay: TGFβ and Collagen 3 gene expression (real-time PCR) in lung tissue of a high-fat-diet animal model of pulmonary fibrosis; assay type: in vivo, C57BL/6 mice; settings: high-fat diet mice; CHP 5 and 35 mg/kg orally once a day for 16 weeks; corrected by GAPDH; FIG. 8
[5] = tested on: human-derived glomerular endothelial cells; assay: Cytological morphology after CHP treatment in a human-derived glomerular endothelial cell fibrosis model (rTGFβ-induced); assay type: cell-based; settings: rTGFβ 2 ng/ml; CHP 40 and 100 μg/ml; FIG. 4
[6] = tested on: animal model of cardiac fibrosis; assay: Fibrosis marker gene expression (real-time PCR) in heart tissue of a high-fat-diet animal model of cardiac fibrosis; assay type: in vivo, C57BL/6 mice; settings: high-fat diet mice; CHP 5 and 35 mg/kg orally once a day for 16 weeks; corrected by β-actin; no further decrease with concentration; FIG. 10
Method: as §2
For cardiac fibrosis experiments in animals, an animal model of cardiac fibrosis was established in the same manner as in Example 4-1.
as §3, with “heart” for “adipose”, “heart” for “epididymal adipose”, “tissue” for “tissue (EAT)”, “50” for “100”, “heart” for “fat”, “(β-actin,” for “GAPDH,”
Statistical significance was analyzed using one-way ANOVA statistical analysis, and the Dunnett post hoc test was used to compare the significance with the HFD control group (*p<0.05, **p<0.01, ****p<0.0001).

[7] = tested on: HS68 skin fibroblast-derived cell line; assay: Fibronectin protein expression (Western blot) in a human-derived skin cell fibrosis model; assay type: cell-based; settings: HS68 cells; TGFβ 2 ng/ml with CHP 500 ng/ml; 48 hours; p<0.05 vs TGFβ-treated control; FIG. 9
Method: as §1, with “HS68 skin fibroblast-derived” for “Huh7 liver”, “125, 250,” for “125,”, “500” for “250”
(§4) Western blotting was performed in the same manner as in Example 3-2 to analyze the expression of fibronectin protein, a fibrotic protein. Statistical significance was analyzed using Student's t-test statistical method with the control (#p<0.05 (negative control group: TGFβ-treated control group), *p<0.05 (TGFβ-treated control group: CHP 500 ng/ml-treated group)).

L-132 lung cell line = assay: Fibronectin protein expression (Western blot) in a human-derived lung cell fibrosis model; assay type: cell-based; settings: L-132 cells; TGFβ 2 ng/ml with CHP 125 ng/ml; 48 hours; p<0.01 vs TGFβ-treated control; FIG. 7
Method: as §1, with “MEM” for “DMEM”, “L-132 lung” for “Huh7 liver”, “62.5,” for “62.5, 125,”, “125” for “250”
as §4, with “**p<0.01” for “*p<0.05”, “125” for “500”

[8] = tested on: human-derived proximal tubular epithelial cells; assay: Western blot of E-cadherin, fibronectin and pSTAT3 proteins in the human-derived proximal tubular epithelial cell fibrosis model; assay type: cell-based; settings: TGFβ 2 ng/ml, CHP 4, 20 and 100 μg/ml, FIG. 3
Source text: Under the same conditions as in Example 1-2, the expression levels of proteins of E-cadherin, a junction marker, fibronectin, a fibrosis marker, and pSTAT3, a fibrosis transcription factor, after CHP administration were checked by Western blot.

O=C1N[C@@H](Cc2cnc[nH]2)C(=O)N2CCC[C@@H]12 [CHP, Cyclo-HisPro]
expression level of fibronectin protein (Huh7 liver cell line): showed a tendency to decrease | cytomorphological fibrosis (cytoskeletal remodeling and morphological changes) [1]: fibrosis was improved | expression of CTGF gene in fat (epididymal adipose tissue) [2]: markedly reduced | expression of Collagen 3 gene in fat (epididymal adipose tissue) [2]: markedly reduced | expression of Fibronectin gene in fat (epididymal adipose tissue) [2]: markedly reduced | expression of TGFβ gene in fat (epididymal adipose tissue) [2]: markedly reduced | expression level of fibronectin protein in liver tissue [3]: significantly decreased | expression of Collagen 3 gene in lung [4]: decreased more significantly according to the CHP administration concentration | expression of TGFβ gene in lung [4]: decreased more significantly according to the CHP administration concentration | cytomorphological fibrosis (cytoskeletal remodeling and morphological changes) [5]: fibrosis was improved | expression of Collagen 1 gene in heart [6]: significantly reduced | expression of Collagen 3 gene in heart [6]: significantly reduced | expression of Collagen 4 gene in heart [6]: significantly reduced | expression of Fibronectin gene in heart [6]: significantly reduced | expression of TGFβ gene in heart [6]: significantly reduced | expression level of fibronectin protein [7]: significantly decreased | expression level of fibronectin protein (L-132 lung cell line): significantly decreased | protein expression of E-cadherin (junction marker) [8]: restored | protein expression of fibronectin (fibrosis marker) [8]: decreased | protein expression of pSTAT3 (fibrosis transcription factor) [8]: decreased
